The source made the active and inactive calls. The rule behind the calls is not given here.
Legend:
[1] = Stability in human plasma assessed as compound remaining at 2 uM measured after 60 mins by LC-MS/MS analysis; type: ADME, cell-free; details: read-out: Stability
Vero C1008 = assay: (§1) Cytotoxicity against African green monkey Vero E6 cells assessed as cell viability at 5 uM incubated for 48 hrs by MTT assay; type: toxicity, cell-based; details: chlorocebus sabaeus, vero c1008, 48 h, 5 µM
[2] = Lipophilicity, LogD of compound in sodium phosphate buffer/n-octanol incubated for 3 hrs by LC-UV analysis; type: physicochemical
SARS-CoV-2 [3] = assay: (§2) Antiviral activity against SARS CoV-2 Wuhan infected in African green monkey Vero E6 cells assessed as inhibition of viral replication pretreated for 15 mins followed by compound removal and induction of viral infection for 1 hr and subsequent removal of inoculum and further addition of media containing compound measured after 24 hrs by cell-based ELISA; type: functional, organism-based; details: for IC50: Severe acute respiratory syndrome coronavirus 2, Wuhan, Vero C1008
[4] = Microsomal stability in mouse liver microsomes assessed as half life at 100 uM preincubated for 15 mins followed by NADPH addition measured up to 60 mins by LC-MS/MS analysis; type: ADME, Microsome; details: time < 75 min
[5] = Stability in human plasma assessed as half life at 2 uM measured up to 120 mins by LC-MS/MS analysis; type: ADME, cell-free
[6] = Microsomal stability in mouse liver microsomes assessed as intrinsic clearance measured per mg protein at 100 uM preincubated for 15 mins followed by NADPH addition measured up to 60 mins by LC-MS/MS analysis; type: ADME, Microsome; details: time < 75 min, read-out: CLH
[7] = Microsomal stability in human liver microsomes assessed as intrinsic clearance measured per mg protein at 100 uM preincubated for 15 mins followed by NADPH addition measured up to 60 mins by LC-MS/MS analysis; type: ADME, Microsome; details: time < 75 min, read-out: CLH
[8] = Microsomal stability in human liver microsomes assessed as half life at 100 uM preincubated for 15 mins followed by NADPH addition measured up to 60 mins by LC-MS/MS analysis; type: ADME, Microsome; details: time < 75 min
[9] = Stability in mouse plasma assessed as half life at 2 uM measured up to 120 mins by LC-MS/MS analysis; type: ADME, cell-free
[10] = Microsomal stability in human liver microsomes assessed as compound remaining at 100 uM preincubated for 15 mins followed by NADPH addition measured after 60 mins by LC-MS/MS analysis; type: ADME, Microsome; details: time 75 min, read-out: Stability
[11] = Microsomal stability in mouse liver microsomes assessed as compound remaining at 100 uM preincubated for 15 mins followed by NADPH addition measured after 60 mins by LC-MS/MS analysis; type: ADME, Microsome; details: time 75 min, read-out: Stability
[12] = Stability in mouse plasma assessed as compound remaining at 2 uM measured after 60 mins by LC-MS/MS analysis; type: ADME, cell-free; details: read-out: Stability
SARS-CoV-2 [13] = assay: as §2, with “virus inactivation at 5 uM” for “inhibition of viral replication”, “48” for “24”, “RT-qPCR analysis relative to control” for “cell-based ELISA”; type: functional, Severe acute respiratory syndrome coronavirus 2; details: time 48.25 hrs
[14] = molecular target: T1, Voltage-gated inwardly rectifying potassium channel KCNH2 (Homo sapiens, UniProt Q12809); assay: Inhibition of hERG extracted from membrane (unknown origin) incubated for 4 hrs by fluorescence polarization assay; type: toxicity, cell membranes
SARS-CoV-2 [15] = assay: Potency index, ratio of Arbidol IC50 to test compound IC50 for antiviral activity against SARS CoV-2 Wuhan infected in African green monkey Vero E6 cells assessed as inhibition of viral replication pretreated for 15 mins followed by compound removal and induction of viral infection for 1 hr and subsequent removal of inoculum and further addition of media containing compound measured after 24 hrs …; type: functional, Severe acute respiratory syndrome coronavirus 2; details: time 24.25 hrs
[16] = Clearance in female C57BL/6 mouse at 2 mg/kg, iv; type: ADME, organism-based; details: in vivo
SARS-CoV-2 [17] = assay: Antiviral activity against SARS CoV-2 Wuhan infected in African green monkey Vero E6 cells assessed as decrease in spike protein expression at 0.5 uM incubated for 48 hrs by immunofluorescence based analysis; type: functional, organism-based; details: Severe acute respiratory syndrome coronavirus 2
[18] = Tmax in female C57BL/6 mouse at 20 mg/kg, po; type: ADME, organism-based; details: in vivo
[19] = AUC (0 to infinity) in female C57BL/6 mouse at 2 mg/kg, iv; type: ADME, organism-based; details: in vivo
[20] = Oral bioavailability in female C57BL/6 mouse at 20 mg/kg; type: ADME, organism-based; details: in vivo
[21] = Half life in female C57BL/6 mouse at 2 mg/kg, iv; type: ADME, organism-based; details: in vivo
[22] = Cmax in female C57BL/6 mouse at 20 mg/kg, po; type: ADME, organism-based; details: in vivo
[23] = Volume of distribution at steady state in female C57BL/6 mouse at 2 mg/kg, iv; type: ADME, organism-based; details: in vivo, read-out: Vdss
SARS-CoV-2 [24] = assay: Antiviral activity against SARS CoV-2 Wuhan infected in African green monkey Vero E6 cells assessed as decrease in viral particles at 0.5 uM incubated for 48 hrs by confocal microscopy; type: functional, organism-based; details: Severe acute respiratory syndrome coronavirus 2
[25] = AUC (0 to infinity) in female C57BL/6 mouse at 20 mg/kg, po; type: ADME, organism-based; details: in vivo
SARS-CoV-2 [26] = assay: Antiviral activity against SARS CoV-2 Wuhan infected in African green monkey Vero E6 cells assessed as decrease in green fluorescence at 0.5 uM incubated for 48 hrs by confocal microscopy; type: functional, organism-based; details: Severe acute respiratory syndrome coronavirus 2
[27] = molecular target: T1, Voltage-gated inwardly rectifying potassium channel KCNH2; assay: Inhibition of hERG; type: toxicity
SARS-CoV-2 [28] = assay: Antiviral activity against SARS CoV-2 Wuhan infected in African green monkey Vero E6 cells assessed as decrease in viral particles at 0.7 uM incubated for 48 hrs by confocal microscopy; type: functional, organism-based; details: Severe acute respiratory syndrome coronavirus 2
SARS-CoV-2 [29] = assay: Antiviral activity against SARS CoV-2 Wuhan infected in African green monkey Vero E6 cells assessed as decrease in green fluorescence at 0.7 uM incubated for 48 hrs by confocal microscopy; type: functional, organism-based; details: Severe acute respiratory syndrome coronavirus 2
SARS-CoV-2 [30] = assay: Antiviral activity against SARS CoV-2 Wuhan infected in African green monkey Vero E6 cells assessed as decrease in spike protein expression at 0.7 uM incubated for 48 hrs by immunofluorescence based analysis; type: functional, organism-based; details: Severe acute respiratory syndrome coronavirus 2
[31] = as §1; type: toxicity, cell-based, Vero C1008; details: chlorocebus sabaeus, Vero E6 cells, read-out: Activity
SARS-CoV-2 [32] = assay: as §2, with “virus inactivation at 1 uM” for “inhibition of viral replication”, “48” for “24”, “RT-qPCR analysis relative to control” for “cell-based ELISA”; type: functional; details: Severe acute respiratory syndrome coronavirus 2, time 48.25 hrs

T1 sequence (Q12809 whole entry): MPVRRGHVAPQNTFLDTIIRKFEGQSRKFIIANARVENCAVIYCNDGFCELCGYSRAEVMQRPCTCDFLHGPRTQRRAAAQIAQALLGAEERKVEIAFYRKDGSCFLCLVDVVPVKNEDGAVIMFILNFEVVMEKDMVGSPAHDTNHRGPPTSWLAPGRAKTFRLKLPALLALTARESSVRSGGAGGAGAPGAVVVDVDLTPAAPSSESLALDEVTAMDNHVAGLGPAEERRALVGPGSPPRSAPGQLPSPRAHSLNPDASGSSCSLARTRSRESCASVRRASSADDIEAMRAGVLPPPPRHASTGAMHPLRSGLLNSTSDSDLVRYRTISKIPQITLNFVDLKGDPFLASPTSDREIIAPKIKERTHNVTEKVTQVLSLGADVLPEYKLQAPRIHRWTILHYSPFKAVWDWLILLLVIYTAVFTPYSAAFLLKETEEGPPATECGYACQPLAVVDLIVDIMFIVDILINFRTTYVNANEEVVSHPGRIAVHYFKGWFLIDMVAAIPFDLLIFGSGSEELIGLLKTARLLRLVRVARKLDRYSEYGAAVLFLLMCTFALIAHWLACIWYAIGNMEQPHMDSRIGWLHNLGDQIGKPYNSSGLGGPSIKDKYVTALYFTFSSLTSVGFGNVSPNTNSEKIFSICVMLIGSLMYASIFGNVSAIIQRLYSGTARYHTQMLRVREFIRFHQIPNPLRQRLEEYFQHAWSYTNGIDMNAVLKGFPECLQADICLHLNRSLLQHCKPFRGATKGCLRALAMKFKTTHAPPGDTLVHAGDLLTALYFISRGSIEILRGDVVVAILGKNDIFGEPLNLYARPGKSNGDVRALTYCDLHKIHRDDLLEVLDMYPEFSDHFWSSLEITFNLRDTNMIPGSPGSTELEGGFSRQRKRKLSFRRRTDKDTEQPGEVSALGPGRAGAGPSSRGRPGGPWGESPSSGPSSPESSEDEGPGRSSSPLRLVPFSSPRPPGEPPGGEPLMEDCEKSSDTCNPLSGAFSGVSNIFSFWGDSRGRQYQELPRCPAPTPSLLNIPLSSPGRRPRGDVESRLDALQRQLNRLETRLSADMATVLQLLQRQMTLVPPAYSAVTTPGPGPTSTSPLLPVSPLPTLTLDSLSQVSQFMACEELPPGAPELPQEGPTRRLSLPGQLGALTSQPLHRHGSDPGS

Compound	remaining at 1 h, 2 µM [1] [%]	Activity (Vero C1008)	logD at 3 h [2]	IC50 (SARS-CoV-2 [3]) [µM]	half-life at 100 µM [4] [min]	half-life at 2 µM [5] [min]	microsomal CLint at 100 µM [6] [µL/min/mg]	microsomal CLint at 100 µM [7] [µL/min/mg]	half-life at 100 µM [8] [min]	half-life at 2 µM [9] [min]	remaining at 1 h, 100 µM [10] [%]	remaining at 1 h, 100 µM [11] [%]	remaining at 1 h, 2 µM [12] [%]	Activity (SARS-CoV-2 [13]) [%]	IC50 [14] [µM]	Ratio IC50 (SARS-CoV-2 [15])	also measured
CCOC(=O)c1c(CSc2c(C)cc(C)cc2C)n(Cc2ccc(C)cc2)c2cc(Br)c(O)cc12	87.8	Non-toxic	3.03	1.5	7.17	> 120	80.2	193	17.3	> 120	8.56	1.23	111	>99	> 30	–	–
Cc1ccc(Cn2c(CSc3c(C)cc(C)cc3C)c(C(=O)NC(C)(C)C)c3cc(O)c(Br)cc32)cc1	116	Non-toxic	3.54	0.56	5.73	> 120	143	242	9.7	> 120	1.1	0.73	96.9	–	> 30	~13	–
Cc1ccc(Cn2c(CSc3c(C)cc(C)cc3C)c(C(=O)N3CCC(N4CCOCC4)CC3)c3cc(O)c(Br)cc32)cc1	27.1	Non-toxic	2.45	0.67	26.9	41.1	31.3	35	19.8	53.5	11.4	14.7	44	–	15.9	~13	clearance [16]: 5.55 L/h/kg; Activity (SARS-CoV-2 [17]): Active; Tmax [18]: 120 min; AUC(0-inf) [19]: 0.352 µg·h/mL; bioavailability [20]: 33.9%; half-life [21]: 86.4 min; Cmax [22]: 0.148 µg/mL; Vd [23]: 13.4 L/kg; Activity (SARS-CoV-2 [24]): Active; Activity Was Comparable To Remdesivir; AUC(0-inf) [25]: 1.19 µg·h/mL; Activity (SARS-CoV-2 [26]): Active
CCOC(=O)c1c(CSc2ccccc2)n(C)c2cc(Br)c(O)c(CN(C)C)c12 [UMIFENOVIR]	–	Non-toxic	–	9	–	–	–	–	–	–	–	–	–	<90	0.54	–	IC50 [27]: 0.54 µM
Cc1ccc(Cn2c(CSc3c(C)cc(C)cc3C)c(C(=O)Nc3cnn(C)c3)c3cc(O)c(Br)cc32)cc1	28.6	Non-toxic	1.93	0.7	22.1	42	25.8	28.3	24.5	52.2	16.5	18	42.5	–	> 30	~13	Activity (SARS-CoV-2 [28]): Active; Activity Was Comparable To Remdesivir; Activity (SARS-CoV-2 [29]): Active; Activity (SARS-CoV-2 [30]): Active
CCOC(=O)c1c(CSc2ccc(F)cc2C)n(C)c2cc(Br)c(O)cc12	–	–	–	–	–	–	–	–	–	–	–	–	–	75	–	–	viability at 48 h, 5 µM [31]: 70%; inhibition (SARS-CoV-2 [3]; Severe acute respiratory syndrome coronavirus 2, time 24.25 hrs): inactive; Activity (SARS-CoV-2 [32]): Not active; No Significant Effect Observed
